# Paper PMC7402526, “An in vitro quantitative systems pharmacology approach for deconvolving mechanisms of drug-induced, multilineage cytopenias” (PLoS Computational Biology, 2020)
# How the values were obtained:
# [1] = tested on: hematopoietic stem cells (HSCs); assay: Multi-lineage toxicity assay (MLTA), HSCs: concentration-response and QSP model fit; assay type: cell-based, human
# Procedure, shortened: (§1)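 Six-day flow cytometry counts, bead-normalized and expressed relative to the mean of six vehicle wells, underlie each value. Cells were primary human bone marrow CD34+ cells cultured in SFEM II with cytokines promoting multi-lineage differentiation and self-renewal.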
# [2] = tested on: multi-potent progenitors (MPPs); assay: MLTA, MPPs: concentration-response and QSP model fit; assay type: cell-based, human
# Procedure, shortened: as §1
# [3] = tested on: granulocyte progenitor (Gran-lin prog); assay: MLTA, GranP: concentration-response and QSP model fit; assay type: cell-based, human; settings: Homo sapiens, 144 h
# Procedure, shortened: (§2)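 Drug was added at time 0 to thawed human bone marrow CD34+ cells in SFEM II plus a cytokine cocktail. After 6 days at 37°C, subsets were counted by surface-marker flow with TruCount beads. Vehicle-normalized, donor-pooled data then fed an Emax model separating anti-proliferative from cell-killing effects.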
# [4] = tested on: neutrophils (neutrophil-lin); assay: MLTA, Neut: concentration-response and QSP model fit; assay type: cell-based, human; settings: Homo sapiens, Neutrophil, 144 h
# Procedure, shortened: as §1
# [5] = tested on: early erythroid cells (Eryth I); assay: MLTA, ErythI: concentration-response and QSP model fit; assay type: cell-based, human
# Procedure, shortened: as §2
# [6] = tested on: late erythroid cells (Eryth II); assay: MLTA, ErythII: concentration-response and QSP model fit; assay type: cell-based, human; settings: Homo sapiens, 144 h
# Procedure, shortened: as §1
# [7] = tested on: total viable cells (totalViableCells); assay: MLTA, total live cells concentration-response; assay type: cell-based; settings: Homo sapiens, 144 h, 6 days, normalized to vehicle control, read-out: total_live normalized cell count
# Description: A custom optimized cytokine cocktail was developed using commercially available cytokines (Peprotech, New Jersey) to facilitate simultaneous multi-lineage differentiation and self-renewal of freeze-thawed primary human bone marrow-derived CD34+ cells in SFEM II media (cells and media from StemCell Technologies, Vancouver). Cultures were carried out in ultra-low attachment 96-well plates (Corning, New York) with test article added on day 0 and cultured at 37°C, 85% relative humidity, and 5% CO2 for six days before interrogating drug impact via 17-parameter flow cytometry.
# The flow cytometry panel used to define hematopoietic subsets was composed of CD34-PECy7, CD90-PECY5, CD38-AF488, CD371-PE, CD45Ra-BV421, CD14-BV605, CD42b-AF647, CD10-PEDazzle594, CD235a-PerCPCy5.5 (BioLegend, California), CD15-BUV395, CD41a-APCH7, CD71-BV786 (BD Biosciences, California), and DAPI for dead cell exclusion (ThermoFisher, California). In short, Day 6 cells were harvested, FcR-blocked (FcR binding inhibitor, ThermoFisher), surface-stained, then analyzed in a buffer containing TruCount Control Beads using a BD LSR Fortessa SORP fitted with a high-throughput sampler (BD Biosciences, California). Data was analyzed in Diva 6.0.2 and exported to CSV where after all cell data was transformed to cell per mL then normalized on a per-donor basis to untreated control wells to determine drug impact.
# Donor material was collected and cultured as described above. The number of replicate donor samples per drug ranged from 2–7 and varied per drug (S1 Table). Drug treatment was added at time 0 and cells were maintained in culture for 6 days. Concentrations tested for each drug compound are contained in S1 Table. Concentrations were selected to span a range that is clinically useful. Following treatment, cell populations were measured using flow cytometry. We extracted cell counts from flow cytometry data, normalized to bead counts, and corrected for well volume.
# Each well was normalized to the average of six vehicle control wells. For drugs that were tested across multiple runs of the assay, vehicle-normalized donor data were pooled, and we used the average of these pooled data for further modeling. Normalized data used as model inputs are included in S1 Table.
# [8] = cell-killing component, max(0, EmaxT-1)
smiles,measurement,setting,value
CC(=O)O[C@@]12CO[C@@H]1C[C@H](O)[C@@]1(C)C(=O)[C@H](O)C3=C(C)[C@@H](OC(=O)[C@H](O)[C@@H](NC(=O)OC(C)(C)C)c4ccccc4)C[C@@](O)([C@@H](OC(=O)c4ccccc4)[C@H]21)C3(C)C [docetaxel],EC50,"[1]; Homo sapiens, Hematopoietic stem cell, 144 h, QSP model fit of 6-day MLTA data",33.7 nM
same,activity at 0.0002 µM,"[1]; Homo sapiens, Hematopoietic stem cell, 144 h, dose 0.2 nM, 6 days, normalized to vehicle control, read-out: HSCs normalized cell count",97.9%
same,activity at 0.001 µM,"[1]; Homo sapiens, Hematopoietic stem cell, 144 h, dose 1 nM, 6 days, normalized to vehicle control, read-out: HSCs normalized cell count",104%
same,activity at 0.005 µM,"[1]; Homo sapiens, Hematopoietic stem cell, 144 h, dose 5 nM, 6 days, normalized to vehicle control, read-out: HSCs normalized cell count",64.6%
same,activity at 0.025 µM,"[1]; Homo sapiens, Hematopoietic stem cell, 144 h, dose 25 nM, 6 days, normalized to vehicle control, read-out: HSCs normalized cell count",4%
same,activity at 0.1 µM,"[1]; Homo sapiens, Hematopoietic stem cell, 144 h, dose 100 nM, 6 days, normalized to vehicle control, read-out: HSCs normalized cell count",0.534%
same,activity at 0.5 µM,"[1]; Homo sapiens, Hematopoietic stem cell, 144 h, dose 500 nM, 6 days, normalized to vehicle control, read-out: HSCs normalized cell count",2.32%
same,activity at 2.5 µM,"[1]; Homo sapiens, Hematopoietic stem cell, 144 h, dose 2500 nM, 6 days, normalized to vehicle control, read-out: HSCs normalized cell count",0.559%
same,Emax,"[1]; Homo sapiens, Hematopoietic stem cell, 144 h, parameter from QSP model fitting, read-out: Emax_drug_HSC",130%
same,"EmaxCK,HSC",[1]; [8],0.3 day⁻¹
same,EC50,"[2]; Homo sapiens, 144 h, QSP model fit of 6-day MLTA data",4.71 nM
same,activity at 0.0002 µM,"[2]; Homo sapiens, 144 h, dose 0.2 nM, 6 days, normalized to vehicle control, read-out: MPPs normalized cell count",91%
same,activity at 0.001 µM,"[2]; Homo sapiens, 144 h, dose 1 nM, 6 days, normalized to vehicle control, read-out: MPPs normalized cell count",107%
same,activity at 0.005 µM,"[2]; Homo sapiens, 144 h, dose 5 nM, 6 days, normalized to vehicle control, read-out: MPPs normalized cell count",63.9%
same,activity at 0.025 µM,"[2]; Homo sapiens, 144 h, dose 25 nM, 6 days, normalized to vehicle control, read-out: MPPs normalized cell count",2.42%
same,activity at 0.1 µM,"[2]; Homo sapiens, 144 h, dose 100 nM, 6 days, normalized to vehicle control, read-out: MPPs normalized cell count",0.694%
same,activity at 0.5 µM,"[2]; Homo sapiens, 144 h, dose 500 nM, 6 days, normalized to vehicle control, read-out: MPPs normalized cell count",2.03%
same,activity at 2.5 µM,"[2]; Homo sapiens, 144 h, dose 2500 nM, 6 days, normalized to vehicle control, read-out: MPPs normalized cell count",0.798%
same,Emax,"[2]; Homo sapiens, 144 h, parameter from QSP model fitting, read-out: Emax_drug_MPP",201%
same,"EmaxCK,MPP",[2]; [8],1.014 day⁻¹
same,activity at 0.0002 µM,"[3]; dose 0.2 nM, 6 days, normalized to vehicle control, read-out: GranPs normalized cell count",110%
same,activity at 0.001 µM,"[3]; dose 1 nM, 6 days, normalized to vehicle control, read-out: GranPs normalized cell count",110%
same,activity at 0.005 µM,"[3]; dose 5 nM, 6 days, normalized to vehicle control, read-out: GranPs normalized cell count",4.64%
same,activity at 0.025 µM,"[3]; dose 25 nM, 6 days, normalized to vehicle control, read-out: GranPs normalized cell count",0%
same,activity at 0.1 µM,"[3]; dose 100 nM, 6 days, normalized to vehicle control, read-out: GranPs normalized cell count",0.0204%
same,activity at 0.5 µM,"[3]; dose 500 nM, 6 days, normalized to vehicle control, read-out: GranPs normalized cell count",0.0147%
same,activity at 2.5 µM,"[3]; dose 2500 nM, 6 days, normalized to vehicle control, read-out: GranPs normalized cell count",0.0152%
same,Emax,"[3]; parameter from QSP model fitting, read-out: Emax_drug_GranP",0.04%
same,EC50,[4]; QSP model fit of 6-day MLTA data,13.7 nM
same,activity at 0.0002 µM,"[4]; dose 0.2 nM, 6 days, normalized to vehicle control, read-out: Neut normalized cell count",90.8%
same,activity at 0.001 µM,"[4]; dose 1 nM, 6 days, normalized to vehicle control, read-out: Neut normalized cell count",99.6%
same,activity at 0.005 µM,"[4]; dose 5 nM, 6 days, normalized to vehicle control, read-out: Neut normalized cell count",0.23%
same,activity at 0.025 µM,"[4]; dose 25 nM, 6 days, normalized to vehicle control, read-out: Neut normalized cell count",0.177%
same,activity at 0.1 µM,"[4]; dose 100 nM, 6 days, normalized to vehicle control, read-out: Neut normalized cell count",0.139%
same,activity at 0.5 µM,"[4]; dose 500 nM, 6 days, normalized to vehicle control, read-out: Neut normalized cell count",0.0727%
same,activity at 2.5 µM,"[4]; dose 2500 nM, 6 days, normalized to vehicle control, read-out: Neut normalized cell count",0%
same,Emax,"[4]; parameter from QSP model fitting, read-out: Emax_drug_Neut",23.2%
same,EC50,"[5]; Homo sapiens, 144 h, QSP model fit of 6-day MLTA data, read-out: EC50ErythI",8.14 nM
same,activity at 0.0002 µM,"[5]; Homo sapiens, 144 h, dose 0.2 nM, 6 days, normalized to vehicle control, read-out: ErythI normalized cell count",112%
same,activity at 0.001 µM,"[5]; Homo sapiens, 144 h, dose 1 nM, 6 days, normalized to vehicle control, read-out: ErythI normalized cell count",110%
same,activity at 0.005 µM,"[5]; Homo sapiens, 144 h, dose 5 nM, 6 days, normalized to vehicle control, read-out: ErythI normalized cell count",5.32%
same,activity at 0.025 µM,"[5]; Homo sapiens, 144 h, dose 25 nM, 6 days, normalized to vehicle control, read-out: ErythI normalized cell count",0.559%
same,activity at 0.1 µM,"[5]; Homo sapiens, 144 h, dose 100 nM, 6 days, normalized to vehicle control, read-out: ErythI normalized cell count",0.401%
same,activity at 0.5 µM,"[5]; Homo sapiens, 144 h, dose 500 nM, 6 days, normalized to vehicle control, read-out: ErythI normalized cell count",0.687%
same,activity at 2.5 µM,"[5]; Homo sapiens, 144 h, dose 2500 nM, 6 days, normalized to vehicle control, read-out: ErythI normalized cell count",0.409%
same,Emax,"[5]; Homo sapiens, 144 h, parameter from QSP model fitting, read-out: Emax_drug_ErythroidI",173%
same,"EmaxCK,ErythI",[5]; [8],0.726 day⁻¹
same,EC50,"[6]; QSP model fit of 6-day MLTA data, read-out: EC50ErythII",6.3 nM
same,activity at 0.0002 µM,"[6]; dose 0.2 nM, 6 days, normalized to vehicle control, read-out: ErythII normalized cell count",91.6%
same,activity at 0.001 µM,"[6]; dose 1 nM, 6 days, normalized to vehicle control, read-out: ErythII normalized cell count",105%
same,activity at 0.005 µM,"[6]; dose 5 nM, 6 days, normalized to vehicle control, read-out: ErythII normalized cell count",0.449%
same,activity at 0.025 µM,"[6]; dose 25 nM, 6 days, normalized to vehicle control, read-out: ErythII normalized cell count",0.0341%
same,activity at 0.1 µM,"[6]; dose 100 nM, 6 days, normalized to vehicle control, read-out: ErythII normalized cell count",0.0344%
same,activity at 0.5 µM,"[6]; dose 500 nM, 6 days, normalized to vehicle control, read-out: ErythII normalized cell count",0.0336%
same,activity at 2.5 µM,"[6]; dose 2500 nM, 6 days, normalized to vehicle control, read-out: ErythII normalized cell count",0.0256%
same,Emax,"[6]; parameter from QSP model fitting, read-out: Emax_drug_ErythroidII",1.59%
same,viability at 0.0002 µM,[7]; dose 0.2 nM,100%
same,viability at 0.001 µM,[7]; dose 1 nM,108%
same,viability at 0.005 µM,[7]; dose 5 nM,4.66%
same,viability at 0.025 µM,[7]; dose 25 nM,0.311%
same,viability at 0.1 µM,[7]; dose 100 nM,0.197%
same,viability at 0.5 µM,[7]; dose 500 nM,0.378%
same,viability at 2.5 µM,[7]; dose 2500 nM,0.283%
